Results reported in patent US20240408082A1, “METHODS FOR TREATING CANCERS AND TUMORS” (BEYONDSPRING PHARMACEUTICALS, INC., priority 2021, published 2024).

Assays:
Type in all cases: cell-based
[1] = system: gastric cancer models (Caucasian); assay: 3D clonogenic assay, Example 2, gastric cancer models (Caucasian); conditions: n=3 models
Procedure: (§1) The present study investigated plinabulin for anticancer activity ex vivo in 68 out of 71 originally planned patient-derived xenograft (PDX) models representing major cancer types. Experiments were performed using a 3D clonogenic assay in a 96-well format with colony count based on image analysis as a read-out. By using this assay, the investigational compound was assessed for the ability to inhibit anchorage independent growth and ex vivo colony formation of tumor cells in semi-solid medium.
(§2) A master stock solution of plinabulin was prepared by dissolving the compound in DMSO at a concentration of 9.9 mM. Working stock solutions were prepared by diluting the master stock solution with DMSO to a concentration of 0.99 mM (330-fold the highest test concentration). Small aliquots of the master and working stock were stored at −20° C. […]
(§3) Plinabulin was investigated in 68 PDX models representing a number of cancer types. […] The percentage of viable cells was determined in a Neubauer-hemocytometer using trypan blue exclusion. […]
(§4) The clonogenic assay was carried out in a 96 well plate format using ultra low attachment plates. […] Cultures were incubated at 37° C. and 7.5% CO2 in a humidified atmosphere 13 days in total and monitored closely for colony growth using an inverted microscope. […]

[2] = system: Triple negative breast cancer (MAXFTN); assay: 3D clonogenic assay, Example 2, triple negative breast cancer; conditions: based on IC70, FIG. 7
Procedure: as §1, §2, §3, §4

osteosarcoma = assay: 3D clonogenic assay, Example 2, osteosarcoma; conditions: n=3 models
Procedure: as §1, §2, §3, §4

small cell lung cancer = assay: 3D clonogenic assay, Example 2, small cell lung cancer; conditions: n=7 models
Procedure: as §1, §2, §3, §4

## CC(C)(C)c1[nH]cnc1/C=c1\[nH]c(=O)/c(=C/c2ccccc2)[nH]c1=O [plinabulin, (3Z,6Z)-3-Benzylidene-6-{[5-(2-methyl-2-propanyl)-1H-imidazol-4-yl]methylene}-2,5-piperazinedione]
[1]
  geometric mean absolute IC70: > 3000 nM
[2]
  sensitivity to plinabulin (in words): sensitive
osteosarcoma
  geom. mean abs. IC70: 624 nM
osteosarcoma; read-out: geom. mean abs. IC50
  IC50: 117 nM
Small cell lung cancer
  geom. mean abs. IC70: 385 nM
Small cell lung cancer; read-out: geom. mean abs. IC50
  IC50: 74 nM
